Experimental data from ChEMBL document CHEMBL5608179, “Triptonide induces apoptosis and inhibits the proliferation of ovarian cancer cells by activating the p38/p53 pathway and autophagy” (Bioorg Med Chem, 2024).
pIC50: −log10 of the molar value. The source made the active and inactive calls. The calls are words filed in the database; no cut-off is given here.

What was measured:
[1] = system: A2780; experiment: Induction of cell cycle arrest in human A2780 cells assessed as accumulation of cells at G1 phase at 4 nM measured after 24 hrs by PI staining based Cell Cycle Analysis Kit (KeyGEN) (reference value: 54.2%); type: functional
[2] = Toxicity in BALB/c-nu mouse subcutaneously inoculated with human A2780 cells assessed as morphological changes of spleen at 3 to 5 mg/kg, ip administered every day for 20 days by HE staining analysis; type: organism-based; settings: in vivo, sc, 480 h, dose 3-5 mg/kg, time 20 day
[3] = system: A2780; experiment: Induction of apoptosis in human A2780 cells assessed as early apoptotic cells at 8 nM measured after 24 to 72 hrs by Annexin V-FITC/PI flow cytometry (reference value: 2.82%); type: functional; settings: time 24-72 hrs
[4] = system: A2780; experiment: Induction of apoptosis in human A2780 cells assessed as late apoptotic cells in presence of bafilomycin A1 at 800 nM measured after 24 hrs by Annexin V-FITC/PI flow cytometry (reference value: 1.58%); type: functional
[5] = system: Huh-7; experiment: Cytotoxicity against human Huh-7 cells assessed as cell viability measured after 48 hrs by MTT assay; type: functional, cell-based; settings: Huh-7, 48 h
[6] = system: A2780; experiment: Induction of apoptosis in human A2780 cells assessed as early apoptotic cells in presence of bafilomycin A1 at 800 nM measured after 24 hrs by Annexin V-FITC/PI flow cytometry (reference value: 2.17%); type: functional
[7] = system: A2780; experiment: Induction of cleaved PARP level in human A2780 cells in presence of autophagy inhibitor bafilomycin A1 at 5 to 20 nM measured after 24 hrs by Western blot analysis; type: functional, cell-based; settings: dose 5-20 nM
[8] = system: A2780; experiment: Induction of LC3II expression in human A2780 cells at 5 to 20 nM measured after 24 hrs by Western blot analysis; type: functional, cell-based; settings: dose 5-20 nM
[9] = Toxicity in BALB/c-nu mouse subcutaneously inoculated with human A2780 cells assessed as morphological changes of heart at 3 to 5 mg/kg, ip administered every day for 20 days by HE staining analysis; type: organism-based; settings: in vivo, sc, 480 h, dose 3-5 mg/kg, time 20 day
[10] = system: A2780; experiment: Induction of cell cycle arrest in human A2780 cells assessed as accumulation of cells at S phase in presence of SB203580 at 4 nM measured after 24 hrs by PI staining based Cell Cycle Analysis Kit (KeyGEN) (reference value: 15%); type: functional
[11] = system: A2780; experiment: Cytotoxicity against human A2780 cells assessed as cell viability measured after 48 hrs by MTT assay; type: functional, cell-based; settings: A2780, 48 h
[12] = system: A2780; experiment: Induction of apoptosis in human A2780 cells assessed as early apoptotic cells in presence of p53 SiRNA 2 at 4 nM measured after 24 hrs by Annexin V-FITC/PI flow cytometry (reference value: 2.82%); type: functional
[13] = system: A2780; experiment: Induction of cell cycle arrest at S phase in human A2780 cells assessed as increase in cyclin E1 proteins measured after 24 hrs by Western blot analysis; type: functional, cell-based; settings: dose 5-20 nM
[14] = system: A2780; experiment: Induction of cell cycle arrest in human A2780 cells assessed as accumulation of cells at G2 phase in presence of SB203580 at 4 nM measured after 24 hrs by PI staining based Cell Cycle Analysis Kit (KeyGEN) (reference value: 24.5%); type: functional
[15] = system: A2780; experiment: Induction of cell cycle arrest in human A2780 cells assessed as accumulation of cells at S phase at 2 nM measured after 24 hrs by PI staining based ell Cycle Analysis Kit (KeyGEN) (reference value: 10%); type: functional
[16] = system: A2780; experiment: Induction of cell cycle arrest in human A2780 cells assessed as accumulation of cells at G1 phase in presence of SB203580 at 4 nM measured after 24 hrs by PI staining based Cell Cycle Analysis Kit (KeyGEN) (reference value: 54.2%); type: functional
[17] = system: A2780; experiment: Induction of apoptosis in human A2780 cells assessed as necrotic cells in presence of p53 SiRNA 2 at 4 nM measured after 24 hrs by Annexin V-FITC/PI flow cytometry (reference value: 0.39%); type: functional
[18] = system: A2780; experiment: Induction of cell cycle arrest in human A2780 cells assessed as accumulation of cells at S phase at 1 nM measured after 24 hrs by PI staining based ell Cycle Analysis Kit (KeyGEN) (reference value: 10%); type: functional
[19] = system: A2780; experiment: Induction of cell cycle arrest in human A2780 cells assessed as accumulation of cells at S phase at 4 nM measured after 24 hrs by PI staining based ell Cycle Analysis Kit (KeyGEN) (reference value: 10%); type: functional
[20] = system: A2780; experiment: Induction of apoptosis in human A2780 cells assessed as viable cells in presence of SB203580 at 8 nM measured after 24 to 72 hrs by Annexin V-FITC/PI flow cytometry (reference value: 94.2%); type: functional; settings: time 24-72 hrs
[21] = system: A2780; experiment: Induction of apoptosis in human A2780 cells assessed as viable cells at 8 nM measured after 24 to 72 hrs by Annexin V-FITC/PI flow cytometry (reference value: 94.2%); type: functional; settings: time 24-72 hrs, read-out: Activity
[22] = system: A2780; experiment: Induction of apoptosis in human A2780 cells assessed as viable cells at 800 nM measured after 24 hrs by Annexin V-FITC/PI flow cytometry (reference value: 96.1%); type: functional; settings: read-out: Activity
[23] = system: A2780; experiment: Induction of apoptosis in human A2780 cells assessed as increase in cleaved caspase 9 level measured at 5 to 20 nM by Western blot analysis; type: functional, cell-based; settings: dose 5-20 nM, time 12-48 hrs, TDE = time-dependent effect
[24] = system: A2780; experiment: Induction of apoptosis in human A2780 cells assessed as necrotic cells in presence of bafilomycin A1 at 800 nM measured after 24 hrs by Annexin V-FITC/PI flow cytometry (reference value: 0.18%); type: functional
[25] = system: A2780; experiment: Induction of apoptosis in human A2780 cells assessed as necrotic cells at 8 nM measured after 24 to 72 hrs by Annexin V-FITC/PI flow cytometry (reference value: 0.39%); type: functional; settings: time 24-72 hrs
[26] = system: A2780; experiment: Inhibition of colony formation in human A2780 cells at 0.25 to 0.5 uM incubated for 24 hrs by EdU staining based assay; type: functional, cell-based; settings: dose 0.25-0.5 µM
[27] = system: A2780; experiment: Cytotoxicity against human A2780 cells assessed as cell viability measured after 24 to 72 hrs by MTT assay; type: functional, cell-based; settings: dose 4-64 nM, time 24-72 hrs

In the case of CC(C)[C@]12O[C@H]1[C@@H]1O[C@]13[C@]1(O[C@H]1C[C@H]1C4=C(CC[C@@]13C)C(=O)OC4)[C@@H]2O [TRIPTOLIDE], the Activity [1] was 40%, the Activity [2] was “Non-Toxic” and the Activity [3] was 18.6%. For the same molecule, the Activity [4] was 3.96%, the pIC50 [5] was 7.13 and the Activity [6] was 5.02%. For the same molecule, the Activity [7] was “inactive”, the Activity [8] was “Active” and the Activity [9] was “Non-Toxic”. The Activity [10] was 19.3%, the pIC50 [11] was 5.74 and the Activity [12] was 12.6%. For the same molecule, the Activity [13] was “Dose-Dependent Effect”, the Activity [14] was 31.1% and the Activity [15] was 19.9%. For the same molecule, the Activity [16] was 48.7%, the Activity [17] was 6.47% and the Activity [18] was 14.4%. The Activity [19] was 30.5%, the Activity [20] was 69% and the viability at 0.008 µM [21] was 55.8%. The viability at 0.8 µM [22] was 74%, the Activity [23] was “Tde” and the Activity [24] was 0.75%. For the same molecule, the Activity [25] was 5.59%, the inhibition [26] was “Active” and the Activity [27] was “Dose-Dependent Effect”.
